Test results from PMC3479139, “Diverse Small Molecule Inhibitors of Human Apurinic/Apyrimidinic Endonuclease APE1 Identified from a Screen of a Large Public Collection” (PLoS ONE, 2012).
Where two headings read alike, the source gives them in different places.

Key:
[1] = target: T1, APE1 (Homo sapiens, UniProt P27695); assay: Fluorescence polarization (FP) displacement assay of APE1 binding to AP-DNA probe; settings: read-out: FP IC50;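 note: TAMRA 5′-labeled duplex DNA with THF abasic site (5 nM) and APE1 (20 nM), Mg2+-free buffer, 15 min at room temperature, inhibition seen as lowered polarization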
T1 construct: made in house
T1 sequence (P27695 whole entry): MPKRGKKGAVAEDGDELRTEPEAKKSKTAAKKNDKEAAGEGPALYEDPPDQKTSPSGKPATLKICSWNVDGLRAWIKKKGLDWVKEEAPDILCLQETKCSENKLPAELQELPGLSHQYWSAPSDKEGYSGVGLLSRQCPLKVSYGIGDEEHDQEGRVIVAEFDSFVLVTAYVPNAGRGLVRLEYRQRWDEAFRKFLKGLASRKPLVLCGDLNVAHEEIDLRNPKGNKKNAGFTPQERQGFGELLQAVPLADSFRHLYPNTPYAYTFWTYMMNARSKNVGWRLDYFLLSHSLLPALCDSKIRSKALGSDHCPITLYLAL

[2] = target: T1, APE1; assay: Gel-based radiotracer (32P) APE1 incision assay; type: biochemical; set-up: concentration or dose not given beside the values; settings: percent incision shown; entries 1-112;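 note: APE1 incision reactions ran 5 min at 37 °C, with cleaved product and intact substrate resolved electrophoretically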
[3] = target: double-stranded 17-mer DNA fragment; assay: ThO (Thiazole Orange) DNA displacement assay; type: binding;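 note: miniaturized displacement of the intercalating dye from unlabeled duplex DNA, used to flag nonspecific DNA binders, chiefly intercalators, groove binders may be missed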
Excerpt: The double-stranded 17-mer DNA fragment used in the ThO DNA binding assay was of the same sequence as the fluorogenic HTS substrate but carried no dye labels.
(§1) In order to screen out nonselective compounds, such as non-specific DNA binders and inhibitors of related enzymes, we used a miniaturized ThO DNA displacement assay and a counterscreen against the bacterial endonuclease E. coli Endo IV, respectively, following the previously published protocols [21].
To detect screening hits that inhibit APE1 activity through non-specific DNA interactions, we employed a previously established miniaturized ThO dye displacement assay [21]. […] We note that the ThO assay reports primarily on DNA binders acting through intercalation, while potentially missing other types of DNA binders, such as those acting through the minor groove.

[4] = target: T2, E. coli Endo IV (Escherichia coli, UniProt P0A6C1); assay: E. coli Endo IV profiling counterscreen; type: biochemical; settings: for IC50: read-out: EndoIV IC50;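 for all read-outs here: selectivity counterscreen of candidate APE1 inhibitors against the bacterial endonuclease Endo IV, run in the same assay format as the primary APE1 high-throughput screen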
T2 construct: made in house
Excerpt: as §1
To probe the selectivity of the candidate APE1 inhibitors, we tested them against E. coli EndoIV [36], employing the same assay as used in the HTS.

[5] = target: T1, APE1; assay: Fluorogenic kinetic qHTS APE1 incision assay (primary screen and retest of cherrypicked samples); type: biochemical;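 note: purified APE1 cleaving a fluorophore/dark-quencher labelled 17-mer duplex DNA bearing a tetrahydrofuran AP site, fluorescence rise followed kinetically over the first 2 min, inhibition normalized to controls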
[6] = initial quantitative high-throughput screen, read-out: APE1 qHTS IC50
[7] = retest of cherrypicked sample, read-out: APE1 Retest IC50

Compound | IC50 [1] [µM] | Radiotracer Assay (%Activity) [2] [%] | IC50 ([3]; read-out: ThO-DNA binding IC50) [µM] | IC50 [4] [µM] | IC50 [5, 6] [µM] | IC50 [5, 7] [µM] | also measured
O=C(CCCN1C(=O)/C(=C/c2ccco2)SC1=S)Nc1ccccc1C(=O)O [MLS000778775] | 5 | 3 | > 57 | > 57 | 19.9 | 12.6 | –
O=C(O)c1cc[c]([Sb](=[O])([OH])[OH])cc1[N+](=O)[O-] [NSC-13755, reference compound] | – | – | – | – | – | – | IC50 ([5]; control on every assay plate, average over screen, read-out: IC50 of intra-plate control titration): 0.035 µM
NC(Cc1ccc(O)c(O)c1)C(=O)O (centres unmarked) [NCGC00095195] | > 57 | 28.3 | > 57 | > 57 | 0.3 | 0.1 | –
CN(C)C(=O)Nc1ccc(Cl)c(Cl)c1 [NCGC00094525] | > 57 | 36.6 | > 57 | > 57 | 20 | 44.7 | –
phthalocyanine tetrasulfonate hydrate [NCGC00165867] | 0.2 | 6.2 | 0.6 | – | 0.3 | 0.06 | IC50 ([3]; read-out: ThO dye displacement IC50): 0.631 µM; Concentration response against EndoIV [4]: complete concentration response curves
Cc1cccc(N2NC(=O)/C(=C/c3ccc(-c4ccc(Cl)c(C(=O)O)c4)o3)C2=O)c1 [MLS000621664] | > 57 | 32 | > 57 | > 57 | 17.8 | 12.6 | –
COc1ccc(S(=O)(=O)N2CCN(C(=O)C3COc4ccccc4O3)CC2)cc1 (centres unmarked) [MLS002159357] | – | – | > 57 | > 57 | – | – | –
O=C1NN(c2ccccc2)C(=O)/C1=C/c1ccc(-c2ccc(Cl)c(C(=O)O)c2)o1 [MLS000682903] | 15.8 | 37 | > 57 | > 57 | 12.6 | 15.6 | –
O=c1oc2c(O)c(O)cc3c(=O)oc4c(O)c(O)cc1c4c23 [NCGC00094975] | 31.6 | 2.4 | 0.1 | > 57 | 0.01 | 0.01 | –
NC(=O)Cn1c(=O)n(Cc2ccco2)c(=O)c2c3c(sc21)CCCCC3 [MLS000559128] | 7.1 | 21 | > 57 | > 57 | 31.6 | 10 | –
O=C1CCCC(O)=C1N=Nc1cccc(C(=O)O)c1 [MLS000759952] | > 57 | 10 | > 57 | > 57 | 10 | 12.6 | –
CC1(C)C(=O)CC[C@]2(C)C3C(=O)C=C4[C@H]5C[C@@](C)(C(=O)O)CC[C@]5(C)CC[C@]4(C)[C@]3(C)CC[C@@H]12 (some centres unmarked) [MLS000697684] | – | – | > 57 | > 57 | – | – | –
COC(=O)c1c(C)[nH]c(C(=O)COc2ccc3ccc(=O)oc3c2)c1C [MLS002156353] | – | – | – | > 57 | – | – | –
O=c1ccc2[n+]([O-])c3ccc([O-])cc3oc-2c1.[Na+] [MLS000778776] | 0.02 | 5 | > 57 | 4.5 | 25.1 | 12.4 | –
O=c1nc(N/N=C/c2ccco2)cn[nH]1 [MLS000685729] | > 57 | 28 | > 57 | > 57 | – | 5 | –
O=C(/C=C/c1ccco1)OCC(=O)N1CCCCC1 [MLS002246602] | – | – | > 57 | > 57 | – | – | –
O=C(O)C1C2C=CC(C2)C1C(=O)Nc1ccccc1Br (centres unmarked) [MLS001008562] | – | – | > 57 | > 57 | – | – | –
CC(=O)Oc1cc2cccc(OC(C)=O)c(=O)c2c(OC(C)=O)c1OC(C)=O [MLS001049122] | > 57 | 37 | > 57 | > 57 | 0.4 | 6.3 | –
Cc1c2c(c(O)c3c(O)cccc13)C(=O)O[C@H]2C1C(N(C)C)C(O)=C(C(N)=O)C(=O)[C@H]1O (some centres unmarked) [NCGC00163605] | 2.2 | 2.7 | – | > 57 | 2 | 1.6 | ThO assay signal behaviour (autofluorescence interference) [3]: strong dose-dependent fluorescence signal increase
CCOC(=O)C1CCN(/C=C2/C(=O)NC(=O)N(Cc3ccco3)C2=O)CC1 [MLS000113273] | > 57 | 3 | > 57 | > 57 | 14.1 | 3.2 | –
COc1ccc(N2Cc3cccc(C(=O)O)c3C2=O)cc1 [MLS000120697] | 7.9 | 37 | > 57 | > 57 | 12.6 | 3.9 | –

Compound | IC50 [1] [µM] | Radiotracer Assay (%Activity) [2] [%] | IC50 ([3]; read-out: ThO-DNA binding IC50) [µM] | IC50 [4] [µM] | IC50 [5, 6] [µM] | IC50 [5, 7] [µM] | also measured
Cc1ccc2c(=O)cc(C(=O)NCCc3ccc(S(N)(=O)=O)cc3)oc2c1 [MLS001216111] | – | – | 36.3 | > 57 | – | – | –
COc1ccc(CNC(=O)COC(=O)c2ccc(S(=O)(=O)NCc3ccco3)cc2)cc1 [MLS002252767] | – | – | > 57 | > 57 | – | – | –
COc1ccccc1NC(=O)COC(=O)c1cc2c(s1)CCC2 [MLS002161511] | – | – | > 57 | 18.2 | – | – | –
Cc1ccc(C)c(OCCn2ccnc2)c1 [MLS000974607] | – | – | > 57 | > 57 | – | – | –
O=C(Cc1ccc(S(=O)(=O)N2CCOCC2)s1)Nc1nc2c(s1)CCCC2 [MLS000567201] | – | – | 15.8 | > 57 | – | – | –
O=C(COC(=O)C1CC(=O)N(Cc2ccco2)C1)c1ccc(OC(=O)c2ccccc2)cc1 (centres unmarked) [MLS000548444] | – | 35 | > 57 | 10 | – | – | –
CN(CC(=O)Nc1cccc(F)c1)C(=O)c1cc(-c2ccco2)nc2ccccc12 [MLS001156482] | – | – | 40.8 | > 57 | – | – | –
O=C(COC(=O)/C=C/c1ccco1)NCc1ccc2c(c1)OCO2 [MLS001006993] | – | – | > 57 | > 57 | – | – | –
COc1cc(/C=C(\C#N)C(=O)Nc2cccc(C(=O)O)c2)ccc1OCc1ccc(Cl)cc1 [MLS001172702] | – | – | > 57 | > 57 | – | – | –
O=C(O)Cc1ccc(S(=O)(=O)N2CCCC2)s1 [MLS002245326] | – | – | > 57 | > 57 | – | – | –
C=CCn1c(SCC(=O)Nc2sc3c(c2C#N)CCC(C)C3)nc2cc(C(=O)O)ccc2c1=O (centres unmarked) [MLS002251505] | – | – | > 57 | > 57 | – | – | –
Cn1c(SCC(=O)Nc2nncs2)nnc1C1CC1 [MLS001060429] | – | – | > 57 | > 57 | – | – | –
O=C(CCC(=O)c1ccc(Oc2ccccc2)cc1)Nc1ccc(C(=O)O)cc1 [MLS001001328] | – | – | > 57 | > 57 | – | – | –
O=C(COc1ccccc1[N+](=O)[O-])Nc1cccc(S(=O)(=O)NC2=NCCCCC2)c1 [MLS001078387] | – | – | > 57 | > 57 | – | – | –
CC(C)OCCOc1ccc2oc(-c3ccco3)cc(=O)c2c1 [MLS001163009] | – | – | > 57 | > 57 | – | – | –
NS(=O)(=O)c1ccc(CCNC(=O)c2ccc3nccnc3c2)cc1 [MLS002252586] | – | – | > 57 | > 57 | – | – | –
Cc1c(NS(=O)(=O)c2cc(C(=O)NCCN(C)C)ccc2Cl)c(=O)n(-c2ccccc2)n1C [MLS001175210] | – | – | > 57 | > 57 | – | – | –
N[C@H](Cc1ccc(O)c(O)c1)C(=O)O [NCGC00093869] | – | 11.3 | > 57 | > 57 | 1 | 3.5 | –
O=[N+]([O-])c1ccc(Cl)c(-c2ccc(/C=N/n3cnnc3)o2)c1 [MLS001194618] | – | – | > 57 | > 57 | – | – | –
CNS(=O)(=O)c1cccc(C(=O)OCC(=O)c2ccc[nH]2)c1 [MLS002163823] | – | – | > 57 | > 57 | – | – | –
O=C(COC(=O)/C=C/c1ccco1)NCc1ccco1 [MLS001004396] | – | – | > 57 | > 57 | – | – | –
